{"source": "patent US20210260010A1", "about": "“COMPOSITIONS AND METHODS FOR THE REDUCTION OR TREATMENT OF INFLAMMATION” (AXCELLA HEALTH INC., priority 2018, published 2021)", "experiment": "FATZO mouse NASH model on western diet plus fructose (Example 8): body and liver weight, liver histology, NAS, fibrosis", "format": "in vivo, FATZO mice", "text": "NASH was induced in 60 male FATZO mice by a western diet (Research Diet #D12079B; fat 40% kcal, protein 17% kcal, carbohydrate 43% kcal) supplemented with 5% fructose in the drinking water (WDF) during a 16 week induction phase. Diets and water were available ad libitum. Littermate control male FATZO mice fed with a control diet (n=6, Purina #5008; fat 17% kcal, protein 27% kcal, carbohydrate 56% kcal) and sterile water were set up for control purpose. Mice were housed in plastic cages with microisolator. Sterilized bedding was replaced once a week. Mice were housed three per cage and maintained on a twelve hour light cycle throughout study duration. Room temperature was monitored daily and maintained at 22-25° C. Body weight was recorded every week during the induction phase.\nFollowing 16 weeks diet induction, 6 mice remained on control diet (group 1, Control) while 60 induced mice were randomized on body weight and plasma glucose (fed) for assignment to the following treatments. FATZO mice were administered with test articles starting at 16 weeks post western diet NASH induction for 4 weeks. Test articles were administered by oral gavage. Animals were euthanized at 20 weeks post western diet NASH induction, and tissues were harvested for analysis.\n[…], […]+G, LRQNAC, and OCA (Advanced ChemBlocks, Inc.), incipient, and water for irrigation were provided by Axcella Health, Inc. 0.5% Methylcellulosewas provided by CrownBio, Inc. Dosing solutions were prepared according to Appendix 1. […] Obeticholic acid (OCA) was suspended in 0.5% methylcellulose in water for irrigation. All test articles were stored refrigerated. TA compounds were provided in frozen powder form by the sponsor. Dosing was continued for 4 weeks.\n[…], […]+G, LRQNAC, OCA and Vehicle were administered by oral gavage at a volume of 10 mL/kg throughout the study. Dosages were calculated by daily body weight. […], […]+G, LRQNAC, and Vehicle were administered twice per day (BID), while OCA was administered once a day (QD) in the morning. Mice receiving OCA once per day (QD), and one vehicle QD. Doses were administered by oral gavage at 0700 and 1800 by oral gavage for 4 weeks.\nThe viability, clinical signs and behavior were monitored daily. Body weight was recorded daily during the dosing period. Blood samples were collected weekly in the AM (0700) via tail clip for glucose measurement (StatStrip glucometer).\nAnimals were anesthetized with CO2 inhalation and exsanguinated via cardiac puncture for euthanasia. Terminal blood samples (K2EDTA) were obtained by cardiac puncture in anesthetized animals at termination. Samples were provided frozen to Axcella Health. Organ weights (total liver, gonadal fat pads) were recorded. Pancreas, and small intestine and gonadal fat pads were fixed in 10% Buffered Formalin and prepared as directed in protocol. A section of small intestine, gonadal fat pad and liver were also snap frozen in liquid nitrogen and shipped to the sponsor.\nThe liver tissues were fixed in Bouin's solution at 4° C. for 24 hours followed by baths of standard concentrations of alcohol then xylene to prepare the tissues for paraffin embedding. After being embedded in paraffin and cooled, five-micron sections were cut and stained for routine H&E and Picric Sirius Red. A section of both right and left lobes of the livers were frozen in OCT for analysis of lipid content with Oil-Red-) staining. The Aperio whole slide digital imaging system (Scan Scope CS, Vista, Calif.) was used for imaging. All slides were imaged at 20×. The scan time ranged from 1.5 minutes to a maximum time of 2.25 minutes. The whole images were housed and stored in their Spectrum software system and images were shot from the whole slides.\nThe livers were evaluated using the NASH liver criteria for scoring. In this mouse study, one cross section of liver for each case was analyzed with the NASH score system. […]", "key": {"[1]": {"settings": "FATZO mice on WDF, 4 weeks, LIVRQNAC+G 3885 mg/kg, LRQNAC 2469 mg/kg BID, OCA 30 mg/kg/day QD"}, "[2]": {"settings": "score 0-3, WDF fed FATZO mice, oral gavage 4 weeks, LIVRQNAC+G and LRQNAC leucine-matched BID, OCA QD"}}}
{"compound": "CC[C@H]1[C@@H](O)[C@@H]2[C@H](CC[C@]3(C)[C@@H]([C@H](C)CCC(=O)O)CC[C@@H]23)[C@@]2(C)CC[C@@H](O)C[C@@H]12", "note": "[OCA, 6α-ethyl-chenodeoxycholic acid]", "values": [{"measurement": "NAFLD activity score (NAS)", "setting": "FATZO mice on WDF, 4 weeks, vs vehicle, LIVRQNAC 1500 or 3000 mg/kg, LIVRQNAC+G 3885 mg/kg, LRQNAC 2469 mg/kg, OCA 30 mg/kg/day", "value": "no significant effect"}, {"measurement": "Body weight change compared to baseline", "setting": "[1]", "value": "−3.9±1.5", "unit": "%"}, {"measurement": "Liver weight (% body weight)", "setting": "[1]", "value": "6.81±0.2", "unit": "% body weight"}, {"measurement": "Liver Pathology NAS", "setting": "WDF fed FATZO mice, oral gavage 4 weeks, LIVRQNAC+G and LRQNAC leucine-matched BID, OCA QD", "value": "3.72 ± 0.147"}, {"measurement": "Liver Pathology Ballooning", "setting": "score 0-2, WDF fed FATZO mice, oral gavage 4 weeks, LIVRQNAC+G and LRQNAC leucine-matched BID, OCA QD", "value": "0.94 ± 0.056"}, {"measurement": "Liver Pathology Inflammation", "setting": "[2]", "value": "1.0 ± 0.0"}, {"measurement": "Liver Pathology Steatosis", "setting": "[2]", "value": "1.78 ± 0.147"}]}
